Test results as given in EP0266640A2 (Euro-Celtique S.A., priority 1986, dated 1988).

Test system: asthmatic patients
Assay: controlled triple-cross-over clinical study, body plethysmographic test of lung function (RAW, FEV1), with pulse and blood pressure
Assay type: in vivo
Procedure: In a controlled triple-cross-over study, in a body phlethysmographic test of the lung function, the effectiveness of and tolerance to the individual substances compared to the combination were investigated.
The investigation was carried out on three in-patients with chronic-obstructive airway diseases.
The associated medication with dosing aerosols was reduced to a minimum and noted in a special test report. It was ensured that no aerosol was used at least eight hours prior to each lung function investigation.
The medication sequence was randomised, with a wash-out-phase of two days after each medication.
It was ensured that all the patients had received no xanthine 24 hours before the controlled investigation (lung function test and determination of reversibility).
The lung function (RAW and FEV₁) and the pulse of the patients were measured on the first and third day always at the same time of day, as shown in Fig. 3. On the third day of the investigation, after the final measurement of lung function, the reversibility was again determined, 15 minutes after inhalation of 400 microgram Fenoterol.

SMILES | rise of FEV₁ mean-value (reversibility) (start of investigation, after inhalation of 400 microgram) | FEV₁ mean-value (start of investigation, after inhalation of 400 microgram, baseline ca. 1,5 l) | reduction of airway resistance (reversibility) (start of investigation, after inhalation of 400 microgram, referred to the initial value) | remaining reversibility (further improvement by inhalation of the dosing aerosol) (third day, after inhalation of 400 microgram Fenoterol, 10 mg Nifedipine alone or 300 mg Theophylline alone twice daily)
CC(Cc1ccc(O)cc1)NCC(O)c1cc(O)cc(O)c1 (stereo not shown) [Fenoterol] | 45% | ca. 2.2 l | 50% | –
Cn1c(=O)c2[nH]cnc2n(C)c1=O [Theophylline, 1,3-dimethylxanthine] | – | – | – | still left a considerable further improvement
